Results as given in patent US6511998B2, “Pyrazole carboxamides useful for the treatment of obesity and other disorders” (priority 1999, dated 2003).

Molecular target: T1, human neuropeptide Y5 receptor (Homo sapiens, UniProt Q15761)
T1 construct: expressed in transfected cells; host or cells: HEK-293 (human embryonic kidney cells), stably transfected, G-418 selected; membranes
T1 sequence (Q15761 1-445): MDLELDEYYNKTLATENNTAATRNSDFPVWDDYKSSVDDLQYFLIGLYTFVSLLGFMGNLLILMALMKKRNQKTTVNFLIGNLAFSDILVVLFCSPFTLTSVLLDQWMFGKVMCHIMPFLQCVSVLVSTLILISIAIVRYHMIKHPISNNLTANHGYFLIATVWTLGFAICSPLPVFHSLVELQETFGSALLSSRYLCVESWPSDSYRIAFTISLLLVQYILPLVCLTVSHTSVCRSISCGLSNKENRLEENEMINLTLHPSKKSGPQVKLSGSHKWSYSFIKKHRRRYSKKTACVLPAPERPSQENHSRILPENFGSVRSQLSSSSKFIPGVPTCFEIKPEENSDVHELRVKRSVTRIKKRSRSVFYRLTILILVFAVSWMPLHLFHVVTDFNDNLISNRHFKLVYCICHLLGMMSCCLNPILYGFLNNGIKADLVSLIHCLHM
Test: NPY5 HTS centrifugation assay: competition with 125I-PYY for binding to membranes of NPY5-transfected HEK-293 cells
Details: 3 μM compound; % inhibition of 125I-PYY binding
Method: The compounds described in this invention were evaluated for binding to the human neuropeptide Y5 receptor.
The human NPY5 receptor cDNA (Genbank Accession number U66275) was inserted into the vector pClneo (Invitrogen) and transfected into human embryonic kidney cells (HEK-293) via Calcium phosphate method (Cullen 1987). Stably transfected cells were selected with G-418 (600 ug/mL). Stably transfected cells served as the source for the membranes for the NPY5 receptor binding assay.
PY5-transfected HEK293 cells were grown to confluence in 150 cm^2 culture dishes. Cells were washed once with phosphate-buffered saline (Gibco Cat# 14040-133). Cells were then incubated in phosphate-buffered saline without Calcium and without Magnesium, supplemented with 2 mM EDTA. Cells were incubated for 10 minutes at room temperature and the cells were collected by repetitive pipeting. Cells were formed into pellets and then frozen at −80 until needed. Frozen pellets were homogenized with a polytron at full speed for 12 seconds in a homogenization buffer (20 mM Tris HCl, 5 mM EDTA, pH 7.4). Homogenates were centrifuged for 5 minutes at 4C at 200 g. Supernatants were transferred to corex tubes and centrifuged for 25 minutes at 28,000 g. Pellets were re-suspended in Binding (20 mM HEPES, 10 mM NaCl, 0.22 mM KH2PO4, 1.3 mM CaCl2, 0.8 mM MgSO4, pH 7.4). Membranes were kept on ice until use.
A competition binding assay, known to those skilled in the art, was used in which the compounds of formula (I) compete with ^125I-PYY for binding to cell membranes. […] Bound ^125I-PYY was determined by centrifugation of membranes, aspirating supernatant, washing away residual ^125I-PYY and subsequently counting the bound sample in a g-counter.
Compounds to be tested were prepared as 10× stocks in binding buffer and added first to assay tubes (RIA vials, Sarstedt). […] To each tube was added 100 μL of membranes and the mixture was agitated by pipeting 2 times. Samples were incubated for 1 hr at room temperature. Aluminum cast plates (Sarstedt) containing the vials were then centrifuged 10 minutes at 3200 rpm in a Sorvall RT6000. Supernatant was then aspirated. To each vial 400 μL PBS was added and this was then aspirated again. Vials were then put in carrier polypropylene 12×75 tube and counted in gamma counter (Packard). Non-specific binding was determined in the presence of 300 nM NPY. Percent inhibition of ^125I -PYY binding was calculated by subtracting non-specific binding from the test samples (compound (I)), taking these counts and dividing by total binding, and multiplying by 100. […] These operations are known to those skilled in the art.

| Compound | % Inh NPY5r 3 μM [%] |
| --- | --- |
| Cc1cc(C(=O)Nc2cccc(Cl)c2Cl)nn1-c1cc(Cl)cc(Cl)c1 [Compound 94] | 0 |
| Cc1cccc(-n2nc(C(=O)Nc3ccc(F)cc3)cc2C)c1 [Compound 97] | 68 |
| Cc1cccc(-n2nc(C(=O)Nc3ccc(Cl)cc3)cc2C)c1 [Compound 98] | 57 |
| Cc1cccc(-n2nc(C(=O)Nc3ccccc3)cc2C)c1 [Compound 100] | 54 |
| Cc1cccc(-n2nc(C(=O)Nc3ccccc3-n3cccc3)cc2C)c1 [Compound 101] | 56 |
| Cc1cc(C(=O)Nc2cccc(-c3ccccc3)c2)nn1-c1cccc(C(F)(F)F)c1 [Compound 111] | 33 |
| Cc1cc(C(=O)Nc2ccc(F)cc2)nn1-c1ccccn1 [Compound 114] | 0 |
| Cc1cc(C(=O)Nc2cc(Cl)cc(Cl)c2)nn1-c1ccccn1 [Compound 115] | 0 |
| Cc1cc(C(=O)Nc2ccccc2-n2cccc2)nn1-c1ccccn1 [Compound 116] | 5 |
| Cc1cc(C(=O)Nc2ccccc2Nc2ccccc2)nn1-c1ccccn1 [Compound 117] | 18 |
| Cc1cc(C(=O)NCc2ccc(F)cc2)nn1-c1cccc(C(F)(F)F)c1 [Compound 118] | 54 |
| Cc1cc(C(=O)NCc2cc(Cl)cc(Cl)c2)nn1-c1cccc(C(F)(F)F)c1 [Compound 119] | 38 |
| Cc1cc(C(=O)NCc2cc(C(F)(F)F)cc(C(F)(F)F)c2)nn1-c1cccc(C(F)(F)F)c1 [Compound 120] | 31 |
| Cc1cc(C(=O)Nc2ccc3ccccc3c2)nn1-c1cccc(C(F)(F)F)c1 [Compound 122] | 25 |
| Cc1cc(C(=O)Nc2ccc(F)cc2)nn1-c1cccc(Cl)c1 [Compound 127] | 60 |
| Cc1cc(C(=O)Nc2ccccc2)nn1-c1cccc(Cl)c1 [Compound 128] | 50 |
| Cc1cc(C(=O)Nc2cc(Cl)cc(Cl)c2)nn1-c1cccc(Cl)c1 [Compound 130] | 7 |
| Cc1cc(C(=O)Nc2ccccc2-n2cccc2)nn1-c1cccc(Cl)c1 [Compound 131] | 29 |

| Compound | % Inh NPY5r 3 μM [%] |
| --- | --- |
| COc1cccc(-n2nc(C(=O)Nc3ccc(F)cc3)cc2C)c1 [Compound 132] | 38 |
| COc1cccc(-n2nc(C(=O)Nc3ccccc3)cc2C)c1 [Compound 133] | 39 |
| COc1cccc(-n2nc(C(=O)Nc3cccc4cnccc34)cc2C)c1 [Compound 134] | 82 |
| COc1cccc(-n2nc(C(=O)Nc3cc(Cl)cc(Cl)c3)cc2C)c1 [Compound 135] | 27 |
| COc1cccc(-n2nc(C(=O)Nc3ccccc3-n3cccc3)cc2C)c1 [Compound 136] | 42 |
| Cc1cc(C(=O)Nc2ccc(F)cc2)nn1-c1cccc(F)c1 [Compound 137] | 44 |
| Cc1cc(C(=O)Nc2ccccc2)nn1-c1cccc(F)c1 [Compound 138] | 42 |
| Cc1cc(C(=O)Nc2cccc3cnccc23)nn1-c1cccc(F)c1 [Compound 139] | 79 |
| Cc1cc(C(=O)Nc2cc(Cl)cc(Cl)c2)nn1-c1cccc(F)c1 [Compound 140] | 29 |
| Cc1cc(C(=O)Nc2ccccc2-n2cccc2)nn1-c1cccc(F)c1 [Compound 141] | 42 |
| Cc1cc(C(=O)Nc2ccc(F)cc2)nn1-c1cc(C(F)(F)F)ccc1Cl [Compound 143] | 15 |
| Cc1cc(C(=O)Nc2ccccc2)nn1-c1cc(C(F)(F)F)ccc1Cl [Compound 144] | 20 |
| Cc1cc(C(=O)Nc2cc(Cl)cc(Cl)c2)nn1-c1cc(C(F)(F)F)ccc1Cl [Compound 146] | 30 |
| Cc1cc(C(=O)Nc2ccccc2-n2cccc2)nn1-c1cc(C(F)(F)F)ccc1Cl [Compound 147] | 21 |
| Cc1cc(C(=O)Nc2cccc3c2CCNC3)nn1-c1cccc(C(F)(F)F)c1 [Compound 153] | 25 |
| Cc1cc(C(=O)Nc2cccc(N)c2)nn1-c1cccc(C(F)(F)F)c1 [Compound 156] | 53 |
| COc1ccc(S(=O)(=O)Nc2cccc(NC(=O)c3cc(C)n(-c4cccc(C(F)(F)F)c4)n3)c2)cc1 [Compound 158] | 52 |

Same assay, conditions: 3 μM compound; % inhibition of 125I-PYY binding; read-out: % Inh NPY5r 3 μM

| Compound | inhibition at 3 µM [%] |
| --- | --- |
| Cc1cccc(-n2nc(C(=O)Nc3cc(Cl)cc(Cl)c3)cc2C)c1 [Compound 99] | 93 |
| CNc1ccccc1NC(=O)c1cc(C)n(-c2cccc(C(F)(F)F)c2)n1 [Compound 113] | 95 |
| Cc1cc(C(=O)Nc2cccc3ccccc23)nn1-c1cccc(C(F)(F)F)c1 [Compound 121] | 95 |
| Cc1cc(C(=O)Nc2cccc3ncccc23)nn1-c1cccc(C(F)(F)F)c1 [Compound 125] | 94 |
| Cc1cc(C(=O)Nc2cccc3cnccc23)nn1-c1cccc(Cl)c1 [Compound 129] | 90 |

Same assay, conditions: inhibition of 125I-PYY binding; values given in μM; read-out: IC50 HNPY5r

| Compound | IC50 [µM] |
| --- | --- |
| Cc1cc(C(=O)Nc2cccc(Cl)c2Cl)nn1-c1cccc(C(F)(F)F)c1 [Compound 93] | 1 |
| Cc1cc(C(=O)Nc2cc(C(F)(F)F)cc(C(F)(F)F)c2)nn1-c1cc(Cl)cc(Cl)c1 [Compound 95] | 5 |
| Cc1cc(C(=O)NCc2nc3ccccc3[nH]2)nn1-c1cccc(C(F)(F)F)c1 [Compound 104] | 14 |
| Cc1cc(C(=O)Nc2ccc3cccnc3c2)nn1-c1cccc(C(F)(F)F)c1 [Compound 107] | 4 |
| Cc1cc(C(=O)Nc2cnc3ccccc3c2)nn1-c1cccc(C(F)(F)F)c1 [Compound 108] | 13 |
| Cc1cc(C(=O)Nc2ccc3c(c2)Cc2ccccc2-3)nn1-c1cccc(C(F)(F)F)c1 [Compound 109] | 6 |
| Cc1cc(C(=O)Nc2cccc(C(F)(F)F)c2)nn1-c1cccc(Cl)c1 [Compound 142] | 1.28 |
| Cc1cc(C(=O)Nc2cccc([N+](=O)[O-])c2)nn1-c1cccc(C(F)(F)F)c1 [Compound 154] | 1 |
| Cc1cc(C(=O)Nc2cccc(C(=O)c3ccccc3)c2)nn1-c1cccc(C(F)(F)F)c1 [Compound 157] | 2 |

Same assay, conditions: inhibition of 125I-PYY binding; values in nM; read-out: IC50 HNPY5r

| Compound | IC50 [µM] |
| --- | --- |
| Cc1cc(C(=O)Nc2cccc(C(F)(F)F)c2)nn1-c1cc(Cl)cc(Cl)c1 [Compound 96] | 0.261 |
| Cc1cccc(-n2nc(C(=O)Nc3cc(Cl)cc(Cl)c3)cc2C)c1 [Compound 99] | 0.218 |
| CNc1ccccc1NC(=O)c1cc(C)n(-c2cccc(C(F)(F)F)c2)n1 [Compound 113] | 0.343 |
| Cc1cc(C(=O)Nc2cccc3ccccc23)nn1-c1cccc(C(F)(F)F)c1 [Compound 121] | 0.356 |
| Cc1cc(C(=O)Nc2cccc3ncccc23)nn1-c1cccc(C(F)(F)F)c1 [Compound 125] | 0.232 |
| Cc1cc(C(=O)Nc2cccc3cnccc23)nn1-c1cccc(Cl)c1 [Compound 129] | 0.45 |
| Cc1cc(C(=O)Nc2cccc3cnccc23)nn1-c1cc(C(F)(F)F)ccc1Cl [Compound 145] | 0.324 |
| Cc1cc2c(NC(=O)c3cc(C)n(-c4cccc(C(F)(F)F)c4)n3)cccc2cn1 [Compound 152] | 0.367 |
